Results as given in ChEMBL document CHEMBL1158406, “Design of novel quinazoline derivatives and related analogues as potent and selective ALK5 inhibitors” (Bioorg Med Chem Lett, 2009).

Experiments:
TGF-beta receptor type-1 [1] = target: T1, TGF-beta receptor type-1 (Homo sapiens, UniProt P36897); assay: Inhibition of TGF-beta-induced ALK5 in human HepG2 cells by luciferase assay; assay type: cell-based
T1 sequence (P36897 whole entry): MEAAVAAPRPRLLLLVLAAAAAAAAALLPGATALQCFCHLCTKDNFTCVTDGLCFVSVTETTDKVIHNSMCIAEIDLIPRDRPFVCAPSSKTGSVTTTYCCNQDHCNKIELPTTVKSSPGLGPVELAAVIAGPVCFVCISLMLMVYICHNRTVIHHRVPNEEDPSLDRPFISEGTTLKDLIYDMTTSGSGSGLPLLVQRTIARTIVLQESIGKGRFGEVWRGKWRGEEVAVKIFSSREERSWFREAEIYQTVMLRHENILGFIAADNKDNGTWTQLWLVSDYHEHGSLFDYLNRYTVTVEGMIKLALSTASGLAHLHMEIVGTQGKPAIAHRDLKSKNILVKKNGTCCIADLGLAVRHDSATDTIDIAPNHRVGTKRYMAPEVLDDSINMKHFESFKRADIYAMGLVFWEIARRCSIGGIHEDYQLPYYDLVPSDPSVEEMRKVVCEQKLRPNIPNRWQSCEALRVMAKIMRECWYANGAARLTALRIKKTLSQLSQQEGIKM

[2] = target: Mitogen-activated protein kinase 14 (Homo sapiens, UniProt Q16539); assay: Inhibition of GST-fused p38alpha
Sequence of Mitogen-activated protein kinase 14 (Q16539 whole entry, the tested form may be a part): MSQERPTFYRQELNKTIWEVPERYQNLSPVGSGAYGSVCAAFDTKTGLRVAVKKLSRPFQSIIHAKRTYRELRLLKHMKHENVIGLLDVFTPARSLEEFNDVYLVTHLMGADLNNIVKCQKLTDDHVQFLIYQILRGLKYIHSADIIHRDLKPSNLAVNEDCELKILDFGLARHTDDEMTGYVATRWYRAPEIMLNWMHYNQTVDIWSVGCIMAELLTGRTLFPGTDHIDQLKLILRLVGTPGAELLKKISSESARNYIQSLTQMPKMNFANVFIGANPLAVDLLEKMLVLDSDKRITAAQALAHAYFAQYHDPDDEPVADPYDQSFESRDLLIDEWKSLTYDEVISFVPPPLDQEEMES

TGF-beta receptor type-1 [3] = target: T1, TGF-beta receptor type-1; assay: Inhibition of human ALK5 kinase expressed in Sf9 cells
Rattus norvegicus [4] = assay: Inhibition of dimethylnitreosamine-induced collagen IA1 mRNA expression in rat liver at 5 mg/kg, po bid; assay type: functional
[5] = AUC in rat at 5 mg/kg, po; assay type: ADME, organism-based; set-up: dose 5 mg/kg, route oral; conditions: plasma
[6] = Bioavailability in rat at 5 mg/kg, po; assay type: ADME, organism-based; conditions: in vivo
Rattus norvegicus [7] = assay: Inhibition of dimethylnitreosamine-induced collagen IA1 mRNA expression in rat liver at 10 mg/kg, po bid; assay type: functional

SMILES | IC50 (TGF-beta receptor type-1 [1]) [nM] | IC50 [2] [nM] | IC50 (TGF-beta receptor type-1 [3]) [nM] | inhibition in vivo at 5 mg/kg (Rattus norvegicus [4]) [%] | AUC [5] [ng·h/mL] | bioavailability [6] [%] | inhibition in vivo at 10 mg/kg (Rattus norvegicus [7]) [%]
Cc1cccc(-c2nc(Nc3ccc4c(cnn4C)c3)c3ccccc3n2)n1 | 794 | > 10000 | 588 | – | – | – | –
Cc1cccc(-c2nc(Nc3ccc4[nH]nnc4c3)c3ccccc3n2)n1 | > 5000 | > 10000 | 3720 | – | – | – | –
Cc1cc(Nc2nc(-c3cccc(C)n3)nc3ccccc23)ccn1 | 1020 | > 10000 | 199 | – | – | – | –
Cc1cccc(-c2nc(Nc3ccncc3)c3ccccc3n2)n1 | 95 | 6720 | 25 | 66 | 524 | 40 | 73
Cc1cccc(-c2nc(Nc3cccc(C(N)=O)c3)c3ccccc3n2)n1 | 545 | > 10000 | 263 | – | – | – | –
Cc1cccc(-c2nc(C)cc(Nc3ccncc3)n2)n1 | 745 | – | 93 | – | – | – | –
Cc1cccc(-c2nc(Nc3ccncc3)c3sccc3n2)n1 | 60 | – | 22 | – | – | – | –
c1ccc(-c2nc(Nc3ccncc3)c3ccccc3n2)cc1 | 2470 | 1270 | 194 | – | – | – | –
Cc1csc(-c2nc(Nc3ccncc3)c3ccccc3n2)n1 | 342 | > 15000 | 20 | – | – | – | –
Clc1cccc(-c2nc(Nc3ccncc3)c3ccccc3n2)c1 | 1610 | > 15000 | 49 | – | – | – | –
Cc1cccc(-c2nc(Nc3ccncc3)c3c(C)csc3n2)n1 | 318 | – | 16 | – | – | – | –
Cc1cccc(-c2nc(Nc3ccncn3)c3ccccc3n2)n1 | 60 | > 10000 | 40 | – | – | – | –
Cc1cccc(-c2nc(Nc3ccc4ncsc4c3)c3ccccc3n2)n1 | > 5000 | > 10000 | 646 | – | – | – | –
Cc1cccc(-c2nc(Nc3ccc4[nH]ncc4c3)c3ccccc3n2)n1 | 90 | > 10000 | 25 | – | – | – | –
